# Columns and labels:
# Format in all cases: functional
# Salmonella = assay: Antibacterial activity against Salmonella assessed as growth inhibition after 12 hr by CLSI broth microdilution method
# Staphylococcus aureus [1] = assay: Antibacterial activity against methicillin-resistant Staphylococcus aureus 8166 clinical isolate assessed as growth inhibition after 12 hr by CLSI broth microdilution method; conditions: Staphylococcus aureus, 8166, 12 h
# [2] = test system: Staphylococcus epidermidis; assay: Antibacterial activity against methicillin-resistant Staphylococcus epidermidis 8311 clinical isolate assessed as growth inhibition after 12 hr by CLSI broth microdilution method; conditions: Staphylococcus epidermidis, 8311, 12 h
# [3] = test system: Staphylococcus epidermidis; assay: Antibacterial activity against Staphylococcus epidermidis RP62A assessed as growth inhibition after 12 hr by CLSI broth microdilution method
# [4] = test system: Staphylococcus epidermidis; assay: Antibacterial activity against methicillin-resistant Staphylococcus epidermidis 8354 clinical isolate assessed as growth inhibition after 12 hr by CLSI broth microdilution method; conditions: Staphylococcus epidermidis, 8354, 12 h
# Escherichia coli = assay: Antibacterial activity against Escherichia coli ATCC 25922 assessed as growth inhibition after 12 hr by CLSI broth microdilution method; conditions: ATCC 25922, 12 h
# Staphylococcus aureus [5] = assay: Antibacterial activity against methicillin-resistant Staphylococcus aureus 8282 clinical isolate assessed as growth inhibition after 12 hr by CLSI broth microdilution method; conditions: Staphylococcus aureus, 8282, 12 h
SMILES,MIC (Salmonella) [µM],MIC (Staphylococcus aureus [1]) [µM],MIC [2] [µM],MIC [3] [µM],MIC [4] [µM],MIC (Escherichia coli) [µM],MIC (Staphylococcus aureus [5]) [µM]
O=C(O)COc1ccc(/C=C2/S/C(=N\c3ccccc3Cl)N(c3ccccc3Cl)C2=O)cc1,> 200,12.5,3.13,3.13,3.13,> 200,3.13
O=C(O)COc1ccc(/C=C2/S/C(=N\c3ccc(F)cc3)N(c3ccc(F)cc3)C2=O)cc1,> 200,–,–,25,–,> 200,–
O=C(O)COc1ccc(/C=C2/S/C(=N\c3ccc(Br)cc3)N(c3ccc(Br)cc3)C2=O)cc1,> 200,6.25,3.13,3.13,3.13,> 200,3.13
O=C(O)COc1ccc(/C=C2/S/C(=N\c3cccc(Cl)c3)N(c3cccc(Cl)c3)C2=O)cc1,> 200,12.5,3.13,3.13,3.13,> 200,3.13
O=C(O)COc1ccc(/C=C2/S/C(=N\c3ccc(Cl)cc3)N(c3ccc(Cl)cc3)C2=O)cc1,> 200,6.25,1.57,1.57,1.57,> 200,3.13
COc1cc(/C=C2/S/C(=N\c3ccc(Cl)cc3)N(c3ccc(Cl)cc3)C2=O)ccc1OCC(=O)O,> 200,–,–,6.25,–,> 200,–
O=C(O)COc1cccc(/C=C2/S/C(=N\c3ccc(Cl)cc3)N(c3ccc(Cl)cc3)C2=O)c1,> 200,–,–,25,–,> 200,–
CCc1ccccc1/N=C1\S/C(=C/c2ccc(OCC(=O)O)c(OC)c2)C(=O)N1c1ccccc1CC,> 200,–,–,50,–,> 200,–
O=C(O)c1ccc(/C=C2/S/C(=N\c3ccccc3)N(c3ccccc3)C2=O)cc1,> 200,–,–,50,–,> 200,–
O=C(O)c1ccc(/C=C2/S/C(=N\c3ccc(F)cc3)N(c3ccc(F)cc3)C2=O)cc1,> 200,–,–,25,–,> 200,–
O=C(O)c1ccc(/C=C2/S/C(=N\c3ccc(Br)cc3)N(c3ccc(Br)cc3)C2=O)cc1,> 200,–,–,12.5,–,> 200,–
O=C(O)c1ccc(/C=C2/S/C(=N\c3ccc(Cl)cc3)N(c3ccc(Cl)cc3)C2=O)cc1,> 200,12.5,3.13,3.13,3.13,> 200,3.13
O=C(O)c1ccc(COc2ccc(/C=C3/S/C(=N\c4ccc(Cl)cc4)N(c4ccc(Cl)cc4)C3=O)cc2)cc1,> 200,–,–,> 200,–,> 200,–
O=C(O)COc1ccc(/C=C2/S/C(=N\c3ccccc3)N(c3ccccc3)C2=O)cc1,> 200,–,–,100,–,> 200,–
CC1(C)S[C@@H]2[C@H](NC(=O)[C@H](N)c3ccccc3)C(=O)N2[C@H]1C(=O)O [AMPICILLIN],> 200,–,–,11.5,–,> 200,–
C[C@H]1COc2c(N3CCN(C)CC3)c(F)cc3c(=O)c(C(=O)O)cn1c23 [LEVOFLOXACIN],–,22.1,22.1,–,22.1,–,22.1
COc1cccc(OC)c1C(=O)N[C@@H]1C(=O)N2[C@@H]1SC(C)(C)[C@@H]2C(=O)O [METHICILLIN],> 200,65.7,65.7,5.26,65.7,> 200,65.7

# From ChEMBL document CHEMBL3046844, “Synthesis of novel 4-thiazolidione derivatives as antibacterial agents against drug-resistant Staphylococcus epidermidis” (2013)
